Assays:
[1] = biological target: CLIK1(h) (Homo sapiens (Human), UniProt Q8TDR2); assay: Kinase Profiler 10 μM panel
Procedure: (§1) The experimental method was as follows: the small molecule compound to be tested (0.001-10 μM), the protein kinase to be tested were incubated with a buffer containing substrate, 10 mM magnesium acetate, and [γ-^33P-ATP], the reaction was started by adding Mg\TPmix, after incubation for a period of time at room temperature, a 3% phosphate solution was added to the buffer to stop the reaction. Subsequently, 10 μL of the reaction mixture was quantitatively pipetted onto P30 filter paper, which was washed three times with 75 mM phosphate solution and then once with methanol. The P30 filter paper was air-dried and scintillation fluid was added for scintillation counting.

[2] = biological target: Itk(h) (Homo sapiens (Human), UniProt Q08881); assay: Kinase Profiler 10 μM panel
Procedure: (§2) In vitro kinase assays were conducted using Kinase Profiler services provided by Eurofins. The experimental method was as follows: the small molecule compound to be tested (0.001-10 μM), the protein kinase to be tested were incubated with a buffer containing substrate, 10 mM magnesium acetate, and [γ-^33P-ATP], the reaction was started by adding Mg\TPmix, after incubation for a period of time at room temperature, a 3% phosphate solution was added to the buffer to stop the reaction. Subsequently, 10 μL of the reaction mixture was quantitatively pipetted onto P30 filter paper, which was washed three times with 75 mM phosphate solution and then once with methanol. The P30 filter paper was air-dried and scintillation fluid was added for scintillation counting.

[3] = biological target: PAK3(h) (Homo sapiens (Human), UniProt O75914); assay: Kinase Profiler 10 μM panel
Procedure: as §2

[4] = biological target: MOK(h) (Homo sapiens (Human), UniProt Q9UQ07); assay: Kinase Profiler 10 μM panel
Procedure: as §2

[5] = biological target: CDK6/cyclinD3(h) (Homo sapiens (Human), UniProt Q00534); assay: Kinase Profiler 10 μM panel
Procedure: as §2

[6] = biological target: ALK(h) (Homo sapiens (Human), UniProt Q9UM73); assay: Kinase Profiler 10 μM panel
Procedure: as §2

[7] = biological target: IKKa(h) (Homo sapiens (Human), UniProt O15111); assay: Kinase Profiler 10 μM panel
Procedure: as §2

[8] = biological target: PAK1(h) (Homo sapiens (Human), UniProt Q13153); assay: Kinase Profiler 10 μM panel
Procedure: as §2

[9] = biological target: BTK(R28H)(h) (Homo sapiens (Human), UniProt Q06187, R28H); assay: Kinase Profiler 10 μM panel
Procedure: as §2

[10] = biological target: IR(h), activated (Homo sapiens (Human), UniProt P06213); assay: Kinase Profiler 10 μM panel
Procedure: as §2

[11] = biological target: GSK3α(h) (Homo sapiens (Human), UniProt P49840); assay: Kinase Profiler 10 μM panel
Procedure: as §2

[12] = biological target: SIK(h) (Homo sapiens (Human), UniProt P57059); assay: Kinase Profiler 10 μM panel
Procedure: as §2

[13] = biological target: DNA-PK(h) (Homo sapiens (Human), UniProt P78527); assay: Kinase Profiler 10 μM panel
Procedure: as §2

[14] = biological target: CHK2(h) (Homo sapiens (Human), UniProt O96017); assay: Kinase Profiler 10 μM panel
Procedure: as §2

[15] = biological target: Fms(Y969C)(h) (Homo sapiens (Human), UniProt P07333, Y969C); assay: Kinase Profiler 10 μM panel
Procedure: as §2

[16] = biological target: Abl (H396P)(h) (Homo sapiens (Human), UniProt P00519, H396P); assay: Kinase Profiler 10 μM panel
Procedure: as §2

[17] = biological target: CK1γ2(h) (Homo sapiens (Human), UniProt P78368); assay: Kinase Profiler 10 μM panel
Procedure: as §2

[18] = biological target: RIPK1 (Homo sapiens (Human), UniProt Q13546); assay: In vitro kinase assay (Eurofins Kinase Profiler), IC50; type: biochemical; details: 0.001-10 μM, read-out: RIPK 1 (IC50)
[19] = biological target: MSK1(h) (Homo sapiens (Human), UniProt O75582); assay: Kinase Profiler 10 μM panel
Procedure: as §2

[20] = biological target: LIMK2(h) (Homo sapiens (Human), UniProt P53671); assay: Kinase Profiler 10 μM panel
Procedure: as §2

[21] = biological target: CaMKIIδ(h) (Homo sapiens (Human), UniProt Q13557); assay: Kinase Profiler 10 μM panel
Procedure: as §2

[22] = biological target: TRB2(h) (Homo sapiens (Human), UniProt Q92519); assay: Kinase Profiler 10 μM panel
Procedure: as §2

[23] = biological target: NEK3(h) (Homo sapiens (Human), UniProt P51956); assay: Kinase Profiler 10 μM panel
Procedure: as §2

[24] = biological target: FAK(h) (Homo sapiens (Human), UniProt Q05397); assay: Kinase Profiler 10 μM panel
Procedure: as §2

[25] = biological target: TSSK3(h) (Homo sapiens (Human), UniProt Q96PN8); assay: Kinase Profiler 10 μM panel
Procedure: as §2

[26] = biological target: ROCK-II(h) (Homo sapiens (Human), UniProt O75116); assay: Kinase Profiler 10 μM panel
Procedure: as §2

[27] = biological target: cKit(D816V)(h) (Homo sapiens (Human), UniProt P10721, D816V); assay: Kinase Profiler 10 μM panel
Procedure: as §2

[28] = biological target: SRPK2(h) (Homo sapiens (Human), UniProt P78362); assay: Kinase Profiler 10 μM panel
Procedure: as §1

[29] = biological target: Flt1(h) (Homo sapiens (Human), UniProt P17948); assay: Kinase Profiler 10 μM panel
Procedure: as §2

[30] = biological target: p70S6K(h) (Homo sapiens (Human), UniProt P23443); assay: Kinase Profiler 10 μM panel
Procedure: as §2

[31] = biological target: PIP5K1g(h) (Homo sapiens (Human), UniProt O60331); assay: Kinase Profiler 10 μM panel
Procedure: as §2

[32] = biological target: Abl(Y253F)(h) (Homo sapiens (Human), UniProt P00519, Y253F); assay: Kinase Profiler 10 μM panel
Procedure: as §2

[33] = biological target: EphB3(h) (Homo sapiens (Human), UniProt P54753); assay: Kinase Profiler 10 μM panel
Procedure: as §2

Chain of ALK(h) (Q9UM73 19-1620): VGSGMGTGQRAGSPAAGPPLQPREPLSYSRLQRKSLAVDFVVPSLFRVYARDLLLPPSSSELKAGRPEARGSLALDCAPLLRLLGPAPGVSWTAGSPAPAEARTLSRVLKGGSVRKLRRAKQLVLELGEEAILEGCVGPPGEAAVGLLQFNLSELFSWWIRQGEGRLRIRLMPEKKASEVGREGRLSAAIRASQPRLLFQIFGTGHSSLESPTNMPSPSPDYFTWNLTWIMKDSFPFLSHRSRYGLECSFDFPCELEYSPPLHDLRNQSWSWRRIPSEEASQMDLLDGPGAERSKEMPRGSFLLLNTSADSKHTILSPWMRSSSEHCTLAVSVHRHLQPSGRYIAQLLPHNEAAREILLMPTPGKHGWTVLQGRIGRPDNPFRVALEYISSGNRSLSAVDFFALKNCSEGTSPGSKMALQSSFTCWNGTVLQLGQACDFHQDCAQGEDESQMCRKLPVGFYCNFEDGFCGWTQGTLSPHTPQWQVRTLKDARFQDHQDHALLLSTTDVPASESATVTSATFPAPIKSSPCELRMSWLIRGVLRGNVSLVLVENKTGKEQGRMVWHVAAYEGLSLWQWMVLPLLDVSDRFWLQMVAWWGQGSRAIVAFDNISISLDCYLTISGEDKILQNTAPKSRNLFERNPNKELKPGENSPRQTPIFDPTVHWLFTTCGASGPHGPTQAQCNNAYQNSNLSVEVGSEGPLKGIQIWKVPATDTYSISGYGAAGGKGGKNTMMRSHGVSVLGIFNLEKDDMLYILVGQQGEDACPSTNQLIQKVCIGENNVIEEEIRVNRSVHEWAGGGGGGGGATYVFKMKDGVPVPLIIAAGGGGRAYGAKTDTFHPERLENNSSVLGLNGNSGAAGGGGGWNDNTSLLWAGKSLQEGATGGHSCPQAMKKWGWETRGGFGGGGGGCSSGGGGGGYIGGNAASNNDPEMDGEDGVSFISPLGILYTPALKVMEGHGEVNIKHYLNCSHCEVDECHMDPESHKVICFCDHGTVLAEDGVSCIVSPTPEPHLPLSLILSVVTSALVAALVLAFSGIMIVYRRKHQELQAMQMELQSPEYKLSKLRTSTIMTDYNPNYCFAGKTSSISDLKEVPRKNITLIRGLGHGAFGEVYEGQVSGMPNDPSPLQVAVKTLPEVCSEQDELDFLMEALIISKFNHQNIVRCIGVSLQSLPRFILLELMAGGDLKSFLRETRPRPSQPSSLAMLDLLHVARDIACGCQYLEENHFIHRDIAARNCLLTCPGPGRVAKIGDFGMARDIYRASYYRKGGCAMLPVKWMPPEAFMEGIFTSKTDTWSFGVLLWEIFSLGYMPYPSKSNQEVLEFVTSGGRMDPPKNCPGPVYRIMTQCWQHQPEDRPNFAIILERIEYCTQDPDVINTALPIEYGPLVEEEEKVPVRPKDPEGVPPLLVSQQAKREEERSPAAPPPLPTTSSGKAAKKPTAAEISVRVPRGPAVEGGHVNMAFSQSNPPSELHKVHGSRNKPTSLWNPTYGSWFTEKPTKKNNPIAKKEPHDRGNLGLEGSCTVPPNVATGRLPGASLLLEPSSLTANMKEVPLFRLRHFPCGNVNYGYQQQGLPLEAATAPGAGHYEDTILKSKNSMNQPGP
Chain of FAK(h) (Q05397 whole entry): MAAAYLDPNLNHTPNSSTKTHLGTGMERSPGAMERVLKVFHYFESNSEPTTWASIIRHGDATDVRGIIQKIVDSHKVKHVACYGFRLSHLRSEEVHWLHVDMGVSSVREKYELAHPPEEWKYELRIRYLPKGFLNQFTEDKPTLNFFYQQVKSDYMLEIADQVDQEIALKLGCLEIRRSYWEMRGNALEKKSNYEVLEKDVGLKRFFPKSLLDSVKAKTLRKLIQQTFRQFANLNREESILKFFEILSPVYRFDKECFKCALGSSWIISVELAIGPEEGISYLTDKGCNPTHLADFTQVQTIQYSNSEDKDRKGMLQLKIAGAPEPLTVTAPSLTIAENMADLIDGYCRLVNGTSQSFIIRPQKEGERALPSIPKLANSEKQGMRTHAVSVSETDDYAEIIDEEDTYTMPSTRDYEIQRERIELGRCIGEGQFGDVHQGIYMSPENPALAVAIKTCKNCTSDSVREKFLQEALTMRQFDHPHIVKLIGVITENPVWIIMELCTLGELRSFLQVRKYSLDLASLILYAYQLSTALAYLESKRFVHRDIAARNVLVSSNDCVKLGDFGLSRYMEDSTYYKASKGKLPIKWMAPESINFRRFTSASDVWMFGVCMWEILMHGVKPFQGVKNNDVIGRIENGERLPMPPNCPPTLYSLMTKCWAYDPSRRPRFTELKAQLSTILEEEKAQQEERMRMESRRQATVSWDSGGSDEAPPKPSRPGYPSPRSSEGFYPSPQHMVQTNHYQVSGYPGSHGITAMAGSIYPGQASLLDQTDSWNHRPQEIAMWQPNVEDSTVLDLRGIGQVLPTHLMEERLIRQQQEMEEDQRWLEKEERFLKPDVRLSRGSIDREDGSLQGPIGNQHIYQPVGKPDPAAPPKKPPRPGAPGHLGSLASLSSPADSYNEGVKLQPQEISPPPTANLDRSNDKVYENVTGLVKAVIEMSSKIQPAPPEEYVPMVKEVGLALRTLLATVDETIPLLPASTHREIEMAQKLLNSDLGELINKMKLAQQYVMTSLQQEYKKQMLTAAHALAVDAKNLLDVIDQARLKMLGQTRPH
Chain of Fms(Y969C)(h) (P07333 20-972 Y969C): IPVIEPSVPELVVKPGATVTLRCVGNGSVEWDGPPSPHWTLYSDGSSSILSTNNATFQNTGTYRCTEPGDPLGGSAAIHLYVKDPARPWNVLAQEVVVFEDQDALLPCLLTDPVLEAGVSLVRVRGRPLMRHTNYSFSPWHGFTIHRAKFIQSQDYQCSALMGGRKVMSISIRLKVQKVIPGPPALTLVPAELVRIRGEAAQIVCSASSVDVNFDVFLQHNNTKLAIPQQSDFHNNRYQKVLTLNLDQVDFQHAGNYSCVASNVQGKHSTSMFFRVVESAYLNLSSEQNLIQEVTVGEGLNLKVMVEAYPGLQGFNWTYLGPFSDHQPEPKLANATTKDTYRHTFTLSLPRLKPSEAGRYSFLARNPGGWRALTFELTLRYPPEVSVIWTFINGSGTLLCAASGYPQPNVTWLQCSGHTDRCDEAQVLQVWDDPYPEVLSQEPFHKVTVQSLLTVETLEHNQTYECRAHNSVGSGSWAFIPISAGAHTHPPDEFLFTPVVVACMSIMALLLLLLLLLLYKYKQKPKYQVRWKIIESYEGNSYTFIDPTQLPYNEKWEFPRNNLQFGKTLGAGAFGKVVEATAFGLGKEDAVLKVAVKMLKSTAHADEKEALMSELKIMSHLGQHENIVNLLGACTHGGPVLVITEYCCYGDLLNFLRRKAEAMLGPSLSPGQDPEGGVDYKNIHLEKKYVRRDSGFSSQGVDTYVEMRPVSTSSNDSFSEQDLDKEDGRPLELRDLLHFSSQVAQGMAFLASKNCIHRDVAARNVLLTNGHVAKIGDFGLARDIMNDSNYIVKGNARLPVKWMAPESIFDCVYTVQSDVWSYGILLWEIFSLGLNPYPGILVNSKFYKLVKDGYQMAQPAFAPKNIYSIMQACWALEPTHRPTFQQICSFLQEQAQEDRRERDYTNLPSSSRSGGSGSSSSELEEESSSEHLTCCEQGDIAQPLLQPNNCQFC
Chain of TSSK3(h) (Q96PN8 whole entry): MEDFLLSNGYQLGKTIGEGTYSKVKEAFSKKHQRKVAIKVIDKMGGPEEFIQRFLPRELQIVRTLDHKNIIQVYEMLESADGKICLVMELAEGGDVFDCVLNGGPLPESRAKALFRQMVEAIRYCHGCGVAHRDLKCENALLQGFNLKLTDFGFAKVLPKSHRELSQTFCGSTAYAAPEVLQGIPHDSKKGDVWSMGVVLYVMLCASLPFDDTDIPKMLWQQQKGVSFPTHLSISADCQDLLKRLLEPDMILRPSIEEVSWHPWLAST
Chain of BTK(R28H)(h) (Q06187 whole entry R28H): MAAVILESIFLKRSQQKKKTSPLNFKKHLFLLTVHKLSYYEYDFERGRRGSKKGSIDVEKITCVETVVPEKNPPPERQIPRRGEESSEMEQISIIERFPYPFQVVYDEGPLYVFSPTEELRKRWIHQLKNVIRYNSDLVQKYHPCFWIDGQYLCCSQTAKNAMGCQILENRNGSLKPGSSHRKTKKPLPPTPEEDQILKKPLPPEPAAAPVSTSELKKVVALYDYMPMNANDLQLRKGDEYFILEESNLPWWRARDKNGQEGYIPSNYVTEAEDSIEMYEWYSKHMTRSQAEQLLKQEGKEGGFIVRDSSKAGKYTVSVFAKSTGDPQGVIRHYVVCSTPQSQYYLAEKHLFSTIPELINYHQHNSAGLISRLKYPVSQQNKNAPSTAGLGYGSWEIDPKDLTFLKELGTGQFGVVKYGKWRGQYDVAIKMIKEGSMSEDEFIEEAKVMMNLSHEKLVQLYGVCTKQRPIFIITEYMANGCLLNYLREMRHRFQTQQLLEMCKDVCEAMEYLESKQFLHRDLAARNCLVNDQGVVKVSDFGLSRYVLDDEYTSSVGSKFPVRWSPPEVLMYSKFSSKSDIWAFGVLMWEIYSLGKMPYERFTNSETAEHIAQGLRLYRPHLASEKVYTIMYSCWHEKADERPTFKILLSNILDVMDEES
Chain of GSK3α(h) (P49840 whole entry): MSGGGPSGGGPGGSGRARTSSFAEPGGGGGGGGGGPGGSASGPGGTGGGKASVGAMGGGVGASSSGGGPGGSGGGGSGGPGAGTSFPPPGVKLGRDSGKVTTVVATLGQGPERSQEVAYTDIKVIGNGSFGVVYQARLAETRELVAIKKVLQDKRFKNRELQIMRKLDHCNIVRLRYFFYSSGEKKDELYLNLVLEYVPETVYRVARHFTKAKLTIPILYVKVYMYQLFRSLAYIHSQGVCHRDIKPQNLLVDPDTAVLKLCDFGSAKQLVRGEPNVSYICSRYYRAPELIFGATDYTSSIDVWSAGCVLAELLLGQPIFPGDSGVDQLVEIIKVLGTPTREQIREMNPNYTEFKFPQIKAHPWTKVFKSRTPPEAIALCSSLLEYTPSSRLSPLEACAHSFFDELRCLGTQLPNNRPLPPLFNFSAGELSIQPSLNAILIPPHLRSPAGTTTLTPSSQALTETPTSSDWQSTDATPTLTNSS

Compound `C[C@H](NC(=O)c1c[nH]c2ccc(-c3ccc4nc(NC(=O)C5CC5)sc4c3)cc12)c1cccc(F)c1` [Compound 34, (S)-5-(2-(cyclopropanecarboxamido)benzo[d]thiazol-6-yl)-N-(1-(3-fluorophenyl)ethyl)-1H-indole-3-carboxamide] has an Inhibition ratio [1] of 22%, an Inhibition ratio [2] of 99% and an Inhibition ratio [3] of −1%. For the same compound, the Inhibition ratio [4] was −15%, the Inhibition ratio [5] was 6% and the Inhibition ratio [6] was 48%. The Inhibition ratio ([7]; IKKa(h)) was 5%, the Inhibition ratio [8] was 4% and the Inhibition ratio [9] was 1%. The Inhibition ratio [10] was 13%, the Inhibition ratio [11] was 10% and the Inhibition ratio [12] was 21%. It also gave an Inhibition ratio [13] of 24%, an Inhibition ratio [14] of 22% and an Inhibition ratio [15] of 18%. It also gave an Inhibition ratio [16] of 98%, an Inhibition ratio [17] of 9% and an IC50 [18] of 10 to 100 nM. For the same compound, the Inhibition ratio [19] was 53%, the Inhibition ratio [20] was 44% and the Inhibition ratio [21] was 22%. For the same compound, the Inhibition ratio [22] was 65%, the Inhibition ratio [23] was 10% and the Inhibition ratio [24] was 33%. The Inhibition ratio [25] was −6%, the Inhibition ratio [26] was 11% and the Inhibition ratio [27] was 0%. For the same compound, the Inhibition ratio [28] was 17%, the Inhibition ratio [29] was 100% and the Inhibition ratio [30] was 25%. For the same compound, the Inhibition ratio [31] was 18%, the Inhibition ratio [32] was 95% and the Inhibition ratio [33] was 3%.
With `C[C@H](NC(=O)c1cn(C)c2ccc(-c3ccn4nc(NC(=O)C5CC5)nc4c3)cc12)c1cccc(F)c1` [Compound 94, (S)-5-(2-(cyclopropanecarboxamido)-[1,2,4]triazolo[1,5-a]pyridin-7-yl)-N-(1-(3-fluorophenyl)ethyl)-1-methyl-1H-indole-3-carboxamide] the Inhibition ratio/% [1] was 22%, the Inhibition ratio/% [2] was 92% and the Inhibition ratio/% [3] was −19%. It also gave an Inhibition ratio/% [4] of −15%, an Inhibition ratio/% [5] of 80% and an Inhibition ratio/% [6] of −7%. It also gave an Inhibition ratio/% ([7]; IKKα(h)) of 29%, an Inhibition ratio/% [8] of 18% and an Inhibition ratio/% [9] of 77%. For the same compound, the Inhibition ratio/% [10] was 35%, the Inhibition ratio/% [11] was 48% and the Inhibition ratio/% [12] was 54%. It also gave an Inhibition ratio/% [13] of 47%, an Inhibition ratio/% [14] of 8% and an Inhibition ratio/% [15] of 13%. For the same compound, the Inhibition ratio/% [16] was 34%, the Inhibition ratio/% [17] was 50% and the IC50 [18] was 1 to 10 nM. The Inhibition ratio/% [19] was −20%, the Inhibition ratio/% [20] was 19% and the Inhibition ratio/% [21] was −11%. The Inhibition ratio/% [22] was −5%, the Inhibition ratio/% [23] was 14% and the Inhibition ratio/% [24] was −3%. It also gave an Inhibition ratio/% [25] of 0%, an Inhibition ratio/% [26] of 7% and an Inhibition ratio/% [27] of 75%. It also gave an Inhibition ratio/% [28] of −16%, an Inhibition ratio/% [29] of 42% and an Inhibition ratio/% [30] of −18%. For the same compound, the Inhibition ratio/% [31] was −16%, the Inhibition ratio/% [32] was 23% and the Inhibition ratio/% [33] was 26%.

Source: patent publication US20230365546A1, “5-SUBSTITUTED INDOLE 3-AMIDE DERIVATIVES, PREPARATION METHOD AND USE THEREOF” (ORIGIANT PHARMACEUTICAL CO., LTD, priority 2020, published 2023)
